Measured values: patent US7192925B2, “Scorpion peptide as hypotensive agent” (Universidade Federal de Minas Gerais, priority 2002, dated 2007)
Entries after “also recorded” stand apart in the source; their conditions may differ.

Legend:
[1] = test system: hypotensive effect of bradykinin (average arterial pressure) in Wistar rats; assay: Bradykinin potentiation in vivo: hypotensive effect of bradykinin re-evaluated after TsHpt-I injection; set-up: species or system rat
Procedure: (§1) Wistar rats, weighting 300±20 g were used, waked or anesthetized, to assess the hypotensive properties of peptides. Bradykinin (Bachem, Co) and TsHpt-I were dissolved in sterile isotonic saline (0.9% NaCl) immediately before use.
(§2) “In vivo” experiments using waked animals: a day before the experiment, rats were anesthetized with ether and a polyethylene catheter (PE-10 connected to PE-50) was inserted into the abdominal aorta through the femoral artery for blood pressure measurements. For intravenous injections, a polyethylene cannula was implanted into the femoral vein. Arterial blood pressure and heart rate were monitored by a solid-state strain-gauge transducer. All variables were recorded continuously on a computer through a data acquisition system, Biopac®, and processed by the Acknowledge® software.
(§3) Bradykinin, 1 μg or 2 μg, was injected and the response measured as variation on average arterial pressure. Hypotensive effect of TsHpt-I (10 μg) alone was measured after Bradykinin. The hypotensive effect of bradykinin (1 μg) was then re-evaluated after 5 and 10 minutes following the injection of TsHpt-I.
“In vivo” experiments using anesthetized rats: the arterial blood pressure and heart rate were monitored continuously after insertion of catheters as described above. Rats were previously anesthetized with urethane, 1.2 mg/kg, (via i.p.).
The hypotensive effect of intravenous injections of bradykinin, 1 μg or 2 μg was measured, followed by the measurement of hypotensive effect of TsHpt-I (10 μg). The hypotensive effect of the bradykinin (1 μg) was then re-evaluated after 1, 5, 10, 15, 20 and 30 minutes.
The potentiating unit—i.e., the amount of peptide that is able to double the activity of a single dose of bradykinin—of TsHpt-I was 10 μg. At this dose TsHpt-I was able to double the activity of a single dose of bradykinin for almost 20 minutes in anesthetized animals.

[2] = test system: arterial blood pressure of Wistar rats; assay: Hypotensive activity of the peptide in biological assays on rats; format: in vivo, rat; settings: native and synthetic peptide
Procedure: as §1, §2, §3
“In vivo” experiments using anesthetized rats: the arterial blood pressure and heart rate were monitored continuously after insertion of catheters as described above. Rats were previously anesthetized with urethane, […], (via i.p.). […]

Substance: TsHpt-I (AEIDFSGIPEDIIKQIKETNAKPPA; listed as Tityus serrulatus)
- time for which TsHpt-I was able to double the activity of a single dose of bradykinin ([1]; TsHpt-I 10 μg, anesthetized animals (urethane)): ~20 min
- potentiation of bradykinin effects (in words) ([1]; rat, in vivo): able to potentiate bradykinin effects in a strong and long-lasting manner
- potentiating unit (amount of peptide that is able to double the activity of a single dose of bradykinin) ([1]; waked and anesthetized rats, intravenous injection, bradykinin 1 μg): 10 µg
- hypotensive activity / ability to decrease blood pressure (in words) [2]: strong ability to decrease blood pressure; also recorded: same hypotensive activity as the native molecule
